Where two headings read alike, the source gives them in different places.
Columns and labels:
[1] = system: glioblastoma cell line U138MG; assay: Glutamate contents assay; format: cell-based; details: U138MG cells after drug treatment, compared to cell viability, Figure 7
Description: (§1) A microplate reader was used to measure absorbances.
Drug efficacy describes how the drug-protein interaction manipulates the normal action of the protein. Glutamate content was examined at differing drug concentrations with the glutamate assay kit to measure drug efficacies. Abcam protocol (ab83389) was followed to quantitate glutamate content. Here, the protocols were summarized.
To prepare samples, cells were harvested, washed with cold PBS, resuspended in an assay buffer, homogenised, incubated for 15 - 30 min on ice, and centrifuged for 2 - 5 minutes at 4°C at top speed using a cold microcentrifuge. The supernatant was collected and transferred to a clean tube, then distributed to well plates.
To quantitate free glutamate levels, the reaction mixture was added to each standard and sample well. The background reaction mix was added to the background sample wells. Wells were mixed and incubated at 37°C for 30 minutes protected from light. Colour change was measured at OD = 450 nm (blue). Glutamate concentration was calculated as formulated in the protocol, then divided by relative cytotoxicity by MTT assay to extrapolate drug efficacy.

glutaminase-2 = assay: Western blot for drug-induced glutaminase content; format: cell-based; details: U138MG cells, Figure 8
Description: as §1
(§2) Drug-induced glutaminase content was measured by western. The cells were washed with PBS and lysed with CelLytic M (C2978, Sigma-Aldrich, Saint Louis, MO, USA) lysis buffer containing protease inhibitors. The lysates were centrifuged at 12,000 rotations per minute for 5 min, and the supernatant was collected. Proteins were separated by Mini-PROTEAN® TGXTM Precast Gels (BioRad, Berkeley, CA, USA) and transferred to a Trans-Blot Turbo Mini 0.2um PVDF Transfer Packs membrane (BioRad, Berkeley, CA, USA) by using Trans-Blot® TurboTM Transfer System (Bio-Rad, Berkeley, CA, USA). The antibodies for mitochondrial glutaminase-1 (kidney-type) and glutaminase-2 (liver-type) encoded from two GLS isomers and GAPDH were used for primary immunoblotting. All the antibodies were diluted at a 1:1000 concentration. DMSO was used as a blank reference. The membranes were incubated in primary antibody solution overnight at 4 °C with gentle rocking. The secondary antibody, goat Anti-Rabbit HRP (ab205718) or goat anti-mouse IgG-HRP (sc2005, Santa Cruz Biotechnology, Inc., Dallas, TX, USA), was blotted for 30 min at 4 °C with gentle rocking. The protein bands were detected with ImageQuant LAS 500 (29-0050-63)

[2] = system: glioblastoma cell line U138MG
Description: (§3) Before performing these assays, the optimum cell count per well was decided by comparing the optical density for L-glutamate (ab120049) absorbance between DMEM-0819 (with glutamine) and DMEM-5671 (without glutamine) culture media, which was tested by glutamate assay kit from Abcam (Abcam PLC, Cambridge, UK) at 450 nm following its protocol, then cultured 20000 cells per well in DMEM-0819 with L-alanyl-L glutamine, adherently, treated with drugs dissolved in DMSO separately. To prepare LDH assay high control samples, cell lysis solution was added instead of drugs. Samples were incubated in a humidified incubator (at 37 °C, 5% CO2). A microplate reader was used to measure absorbances.
(§4) Tetrazolium reduction assay (MTT assays) and lactate dehydrogenase release assays (LDH assays) were conducted to assess cell metabolic activity (cell proliferation) and to measure cytotoxicity (drug toxicity). Abcam protocols (MTT: ab211091, LDH: ab65293) were followed. Here, both protocols were summarized.
(§5) Before adding assay solutions on day 1 (24 hours) and day 2 (48 hours), the drug treatment media were aspirated from plates and transferred to well plates.
(§6) For the MTT assay, serum-free media and MTT Reagent were added to each well. Control samples were prepared without using cells but serum-free media and MTT reagent. […] The reduction of MTT by mitochondrial succinate dehydrogenase was measured by reading absorbance at OD = 590 nm (yellow to purple). Cytotoxicity (CT) was calculated as a ratio of measures of absorbance of control wells (AbsC) and absorbance of sample-containing wells (AbsS) as below: CT = 100∗((AbsC−AbsS))/(AbsC) [formula]
(§7) For the LDH release assay, LDH reaction mix was added to wells. […] The release of LDH from cells due to damaged plasma membrane was measured by reading absorbance at OD = 450 nm (blue). Cytotoxicity (CT) was calculated as a ratio of measures of absorbance of low control wells (AbsLC), high control wells (AbsHC) sample wells (AbsS) as below: CT = 100∗((AbsS−AbsLC))/((AbsHC−AbsLC)) [formula]

glutaminase-1 = assay: Western blot for drug-induced glutaminase content; format: cell-based; details: U138MG cells, Figure 8
Description: as §1, §2

[3] = system: glioblastoma cell line U138MG; assay: Drug toxicity: MTT assay and LDH release assay; details: U138MG glial cells, MTT and LDH release assays, 24 and 48 hours, Figure 6
Description: as §3, §4, §5, §6, §7

| Compound | glutamate levels [1] | drug affinity for glutaminase-2 (relative band intensities) (glutaminase-2) | drug toxicity (metabolic activity and cytotoxicity) [2] | drug affinity for glutaminase-1 (relative band intensities) (glutaminase-1) | drug toxicity (metabolic activity and cytotoxicity) [3] |
| --- | --- | --- | --- | --- | --- |
| CC(C)C[C@H](NC(=O)[C@H](Cc1ccccc1)NC(=O)c1cnccn1)B(O)O [bortezomib] | highly decreased | drastic | toxic for glial cells even at low concentrations |  |  |
| CC12CC3CC(C)(C1)CC(N)(C3)C2 [memantine] | highly decreased | significant and higher affinity | insignificant | significant drug affinity for glutaminase-1 could be measured for only comparably higher concentrations |  |
| CCCCc1ccc2[nH]c(NC(=O)OC)nc2c1 [parbendazole] | highly decreased | drastic |  | significant drug affinity for glutaminase-1 could be measured for only comparably higher concentrations | toxic for glial cells even at low concentrations |

Source: EP4427746A1, “TREATMENT OF DEMENTIA USING BORTEZOMIB OR PARBENDAZOLE” (Bash Biotech Inc, priority 2023, dated 2024)
